Earlier results in patent publication US20060134300A1, “Nutritional supplement for caffeine-containing beverages” (priority 2004, published 2006).

Experiments:
[1] = test system: adrenaline and noradrenaline; conditions: triple dose of caffeine
[2] = test system: sympathetic nervous system; conditions: intraventricular administration
[3] = test system: rats; conditions: rat, in vivo
[4] = test system: subjects put under stress; conditions: 100 mg/kg, within an hour of ingesting
[5] = dose of 150 mg/kg, extended wakefulness

Cn1c(=O)c2c(ncn2C)n(C)c1=O [caffeine, 1,3,7-trimethylxanthine]
catecholamines (adrenaline and noradrenaline) [1]: significantly increased

NCCS(=O)(=O)O [taurine, 2-aminoethanesulfonic acid]
sympathetic nerve activity [2]: inhibited sympathetic nerve activity | LD 50 [3]: greater than 5,000 mg/kg

N[C@@H](Cc1ccc(O)cc1)C(=O)O [tyrosine]
cognitive performance [4]: improved their cognitive performance | lapse probability on a high-event-rate vigilance task [5]: significant reduction | performance decline on a psychomotor task [5]: significant amelioration
